Here are results for nine compounds from US7968558B2, “Amidine derivatives of 2-heteroaryl-quinazolines and quinolines; potent analgesics and anti-inflammatory agents” (Rottapharm S.p.A., priority 2006, dated 2011).

Assay [1] concerns mechanical hyperalgesia associated with STZ-induced diabetes. The assay is described as follows: STZ-induced diabetes mechanical hyperalgesia (neuropathic pain). Type of assay: in vivo, rat. As to the method:
Streptozotocin (STZ)-induced diabetes in the rat has been increasingly used as a model of painful diabetic neuropathy to assess the efficacies of potential analgesic agents (C. Courteix, Pain 1993, 53, 81-8). The compounds of the invention were tested for efficacy in reducing mechanical hyperalgesia associated with STZ-induced diabetes in the rat, according to the experimental model as described by the literature. Diabetes was produced with the injection of a single dose (75 mg/Kg i.p.) of STZ. In the following four weeks after the induction of diabetes the clinical symptoms (weight, body and skin temperature, motility and hyperglycemia) progressively developed by the animals, are strictly monitored. After four weeks, the scores obtained in diabetic rats to various pain stimuli (in particular mechanical stimuli) were grater than those in normal rats, indicating hyperalgesia. The hyperalgesia induced by diabetes was evaluated using the Randall-Selitto method as above described, and quantitated using the analgesimeter. Also in this case, the difference in the mechanical pain threshold between the basal value (generally 230-250 g) and the one tolerated by the animals treated with the drug, is defined as mechanical hyperalgesia. The compounds of the invention were administered i.p. (solution, Tween 80, 10% in saline) at different doses, and mechanical hyperalgesia was measured at the reported time, as maximum percent effect (MPE) which represents the difference (%) in pain threshold between the animals treated with the drug and the controls that received only the vehicle, compared with the weight borne by naïf non-diabetic controls. A 100% protection means that the diabetic animals treated with the compound can tolerate the same stimulus (weight) as the naïf non-diabetic animals. MPE higher than 100% means that the diabetic animal treated with the compound can tolerate stimuli (weight) higher than the control non-diabetic animals (hypoalgesia).

Assay [2] concerns Zymosan-induced mechanical hyperalgesia. The assay is described as follows: Zymosan-induced mechanical hyperalgesia (Randall-Selitto). The format is in vivo, rat. To be noted: for ED50: Rattus norvegicus, read-out: Analgesia ED50; for Analgesia ED100: calculated from linear dose-response. As to the method:
(§1) The interplantar injection of Zymosan-induced mechanical hyperalgesia was used as a model of inflammatory pain (Meller, Neuropharmacology, 1994, 33, 1471-1478). In this model, typically a male Sprague-Dawley or Wistar rat (200-250 g) receives an interplantar injection of 3 mg/100 μl zymosan into one hind paw. A marked inflammation occurs in this hind paw. Drugs are administered orally for evaluation of efficacy, 30 min. before the inflammatory insult. The hyperalgesia induced by zymosan administration was evaluated using the Randall-Selitto method (Arch. Int. Pharmacodyn., 1957, 111, 409). The quantitation of the analgesic effect is achieved by an analgesimeter, which consist in applying to the inflamed paw an increasing weight (from 130-140 g up to 500 g). The difference in the mechanical pain threshold between the basal value (generally 230-250 g) and the one tolerated by the animals treated with the drug, determined 4 hours after the inflammatory challenge, is defined as mechanical hyperalgesia.
(§2) Mechanical hyperalgesia is expressed for the compounds of the invention as ED50, which is the dose of the administered compound able to increase the pain threshold by 50% in comparison with the group of control animals. The corresponding ED100, representing the dose able of reducing of 100% the pain threshold, can be calculated for those cases where there is a linear dose-response relationship. In vivo anti-inflammatory effect exerted by the compound of the invention can be assessed in the same Zymosan induced inflammation test described above, by measuring the volume of the oedema induced by the inflammatory agent. The oedema was evaluated as the increase in the volume of the Zymosan injected paw within a time of 0-2 hrs. The measurements of the variation of the oedema volume of the paw were recorded using hydroplethysmometer, which consists of two plastic cuvettes containing a surfactant liquid, the larger one being used for immersion of the paw, connected to the smaller one which contains a trans-ducer capable of recording small displacements of the volume used for the measure. The paw is immersed in the cuvettes up to the tibiotarsal joint. The volume of the liquid displaced is proportional to the extent of the inflammation. The efficacy of the compounds of the invention in preventing oedema formation is expressed as ED30, and is measured 2 hours after the inflammatory challenge, and represents the dose able of reducing of 30%, the Zymosan induced paw volume increase in comparison to control animals (animals treated with Zymosan but treated with only distilled water instead of the testing compound). The corresponding ED50, representing the dose able of reducing of 50% the zymosan induced paw volume increase, can be calculated for those cases where there is a linear dose-response relationship.
(§3) In both the experiments, for each test compound, at least three doses were used, with 10 animals per group. Compounds of the invention were tested at 10, 20 and 40 mg/Kg.

Assay [3] has as its system Zymosan induced paw volume increase. Nature of the assay: Zymosan-induced paw oedema. Type of assay: in vivo, rat. To be noted: for ED50: Rattus norvegicus, read-out: Oedema Reduction ED50; for Oedema Reduction ED30: 2 hours after challenge. As to the method:
as §1, §2, §3

The subject of the next assay is CFA-induced hyperalgesia. The assay is described as follows: CFA model of chronic inflammatory pain. Type of assay: in vivo, rat.
Assay [4] relates to acetic acid-induced abdominal writhes. The assay is described as follows: Acetic acid-induced writhing test. Type of assay: in vivo, mice. As to the method: With the aim of assessing whether the compounds of the invention are able to inhibit responses to peritoneal irritation-induced visceral pain, the acetic acid-induced writhing assay was used in mice to determine the degree of anti-nociception.
The writhing test is a model of inflammatory pain that has long been used as a screening tool for evaluation of analgesic and anti-inflammatory agents (HDJ Collier, B. J. Pharmacol Chemother., 1968, 32, 295-310). The test was performed inducing nociception by an i.p. injection of acetic acid 1%, 0.1 mL/10 g of body weight. Mice were pre-treated (subcutaneously, s.c., three different doses: 3, 10, 30 mg/Kg) with the tested compounds 30 min. before acetic acid injection, while control animals received a similar volume of saline solution. A group of mice was treated with Paracetamol (200 mg/Kg, s.c.) as reference drug. The number of abdominal writhes (full extension of both hind paws) was cumulatively counted every 5 minutes over a period of 20 min. immediately after the acetic acid injection. The anti-nociceptive activity was expressed as inhibition of abdominal writhes as maximum percent effect (MPE), which represents the difference (%) in pain threshold between the animals treated with the drug and the ones that received only the vehicle.
(Writhing tests count abdominal constrictions after an irritant is injected.)

In assay [5] the test system is formalin-induced paw licking. Nature of the assay: Formalin (licking) test. Type of assay: in vivo, mice. As to conditions: for ED50: Mus musculus, ip. As to the method: The formalin test is increasingly used as a model of injury-produced pain (FV. Abbott, Pain, 1995, 60, 91-102). The procedure used for the evaluation of the compounds of the invention was similar to that reported by literature (S. Hunskaar, Pain, 1987, 30, 103-104), and consisted of the injection of 20 μl of 1% solution of formalin dissolved in distilled water, in the plantar surface of the right hind paw of the mice. Immediately, the animals were placed individually in an observation chamber. The amount of time that the animal spent licking the injected paw, considered indicative of pain, was recorded during 30 min. following formalin injection. The initial nociceptive scores normally peaked 5 min after formalin injection (early phase) and 15-30 min. after formalin injection (late phase), representing both the neurogenic and inflammatory pain responses respectively.
Animals were treated i.p. with an aqueous solution of the tested compound (doses: 3, 10, 30 mg/Kg), 1 hour before the formalin injection. Control animals received only the vehicle.
In Table 8, the analgesic effect elicited in this test by a representative compound of Formula (I), is expressed as ED50 both for the early and late phase, and compared with the performance of the standard reference, paracetamol.

Setting [6] is: oral, 30 min before zymosan, 4 hours after challenge.
Where [7] appears, read: oral, calculated from linear dose-response.

Structures can show the parent of a compound that is named as a salt. Where two headings read alike, the source gives them in different places.

For `CN(C)CCC=C1c2ccccc2CCc2ccccc21` [Amitriptyline, reference compound], the “MPE 0.5 hrs.” value in assay [1] (1 mg/Kg i.p.) came to 72%; in assay [1] (3 mg/Kg i.p.) it was 44%; in assay [1] (10 mg/Kg i.p.), 68%; in assay [1] (30 mg/Kg i.p.), 65%. For the same compound, the “MPE 1.5 hrs.” value in assay [1] (1 mg/Kg i.p.) is 89%; in assay [1] (3 mg/Kg i.p.) it was 40%; in assay [1] (10 mg/Kg i.p.) it was 77%; in assay [1] (30 mg/Kg i.p.), 69%. For the same compound, the “MPE 3 hrs.” value in assay [1] (3 mg/Kg i.p.) is 5%; in assay [1] (30 mg/Kg i.p.) it was 23%.
For `Cc1ccc(-c2cc(C(F)(F)F)nn2-c2ccc(S(N)(=O)=O)cc2)cc1` [Celecoxib, reference compound], the ED50 was 9 mg/kg in assay [2] (setting [6]) and 644 mg/kg in assay [3] (setting [7]). Also, the “Analgesia ED100” value in assay [2] (oral) is 1172 mg/kg. The “Oedema Reduction ED30” value in assay [3] (oral) is listed as 13.8 mg/kg.
As for `CC(=N)Nc1ccc2nc(-c3ccc4c(c3)CCO4)ncc2c1` [Example 4, N-[2-(2,3-dihydro-benzofuran-5-yl)quinazolin-6-yl]acetamidine dihydrochloride hemihydrate], the “MPE 1.5 hrs.” value in the assay with CFA-induced hyperalgesia (3 mg/Kg i.p.) amounted to 44%; in the assay on CFA-induced hyperalgesia (10 mg/Kg i.p.), 27%; with CFA-induced hyperalgesia (30 mg/Kg i.p.), 270%; in assay [1] (3 mg/Kg i.p.), 15%; in assay [1] (10 mg/Kg i.p.) it was 24%; in assay [1] (30 mg/Kg i.p.) it was 74%. For the same compound, the “MPE 0.5 hrs.” value was 47% with CFA-induced hyperalgesia (10 mg/Kg i.p.); 243% in the assay with CFA-induced hyperalgesia (30 mg/Kg i.p.); 56% in assay [1] (3 mg/Kg i.p.); 78% in assay [1] (10 mg/Kg i.p.); 163% in assay [1] (30 mg/Kg i.p.). In addition, the “MPE 3 hrs.” value in the assay on CFA-induced hyperalgesia (10 mg/Kg i.p.) is 25%; in the assay on CFA-induced hyperalgesia (30 mg/Kg i.p.) it was 170%. The entries for the “MPE 6 hrs.” value in the assay with CFA-induced hyperalgesia (10 mg/Kg i.p.) and in the assay on CFA-induced hyperalgesia (30 mg/Kg i.p.) were 66% and 103%, respectively. In addition, the “MPE 24 hrs.” value amounted to 57% in the assay on CFA-induced hyperalgesia (10 mg/Kg i.p.) and 76% in the assay on CFA-induced hyperalgesia (30 mg/Kg i.p.). The ED50 in assay [2] came to 5.8 mg/kg; in assay [4] (Mus musculus, sc) it was 59.6 mg/kg; in assay [3] (po), 170 mg/kg. Besides, in assay [2] (oral), the “Analgesia ED100” value is listed as 17 mg/kg. Further, the “MPE (%)” value is reported as 18% in assay [4] (3 mg/Kg s.c., 30 min. before acetic acid); 41% in assay [4] (10 mg/Kg s.c., 30 min. before acetic acid); 36% in assay [4] (30 mg/Kg s.c., 30 min. before acetic acid). Further, in assay [3] (oral), the “Oedema Reduction ED30” value came to 25 mg/kg.
For `COc1ccc2c(c1)c(CC(=O)O)c(C)n2C(=O)c1ccc(Cl)cc1` [Indomethacine], in assay [5] (i.p., 1 hour before formalin, late phase), the “Analgesic effect ED50 (mg/Kg) Late phase” value was 10 mg/kg.
In the case of `CN1CC[C@]23c4c5ccc(O)c4O[C@H]2[C@@H](O)C=C[C@H]3[C@H]1C5` [Morphine], the ED50 in assay [5] (read-out: Analgesic effect ED50 (mg/Kg) Early phase) and in assay [5] (read-out: Analgesic effect ED50 (mg/Kg) Late phase) was 4 mg/kg throughout.
As to `CS(=O)(=O)Nc1ccc([N+](=O)[O-])cc1Oc1ccccc1` [Nimesulide, reference compound], the ED50 is 7.4 mg/kg in assay [2] (setting [6]) and 33.4 mg/kg in assay [3] (setting [7]). Moreover, the “Analgesia ED100” value in assay [2] (oral) is 161 mg/kg. In assay [3] (oral), the “Oedema Reduction ED30” value is given as 0.5 mg/kg.
Consider `CC(=O)Nc1ccc(O)cc1` [Paracetamol], for which, in assay [4] (200 mg/Kg s.c.), the “MPE (%)” value came to 61%. The ED50 in assay [5] (1 hour before formalin, early phase, read-out: Analgesic effect ED50 (mg/Kg) Early phase) was 230 mg/kg; in assay [5] (1 hour before formalin, late phase, read-out: Analgesic effect ED50 (mg/Kg) Late phase) it was 107 mg/kg.
On to `CN1C(C(=O)Nc2ccccn2)=C(O)c2ccccc2S1(=O)=O` [Piroxicam, reference compound], for which, in the assay on CFA-induced hyperalgesia (30 mg/Kg i.p.), the “MPE 0.5 hrs.” value came out at 102%, the “MPE 1.5 hrs.” value amounted to 111%, the “MPE 3 hrs.” value is reported as 54% and the “MPE 6 hrs.” value was determined as 24%. In addition, in the assay with CFA-induced hyperalgesia (30 mg/Kg i.p.), the “MPE 24 hrs.” value came to 38%.
In the case of `COc1cccc(C2(O)CCCCC2CN(C)C)c1` (centres unmarked) [Tramadol, reference compound], the “MPE 0.5 hrs.” value in assay [1] (3 mg/Kg i.p.) is listed as 26%; in assay [1] (10 mg/Kg i.p.), 58%; in assay [1] (30 mg/Kg i.p.), 54%; in assay [1] (50 mg/Kg i.p.) it was 81%. Moreover, the “MPE 1.5 hrs.” value in assay [1] (3 mg/Kg i.p.) is given as 53%; in assay [1] (10 mg/Kg i.p.), 48%; in assay [1] (30 mg/Kg i.p.) it was 64%; in assay [1] (50 mg/Kg i.p.), 60%. For the same compound, the “MPE 3 hrs.” value in assay [1] (3 mg/Kg i.p.) is 7%; in assay [1] (10 mg/Kg i.p.), 27%; in assay [1] (30 mg/Kg i.p.) it was 23%; in assay [1] (50 mg/Kg i.p.), 43%. The ED50 in assay [2] turned out to be 25.7 mg/kg. For the same compound, the “Analgesia ED100” value in assay [2] (oral) is listed as 405 mg/kg.
